Patent US20260364080A1, “PYRAZOLO-PYRIMIDINONE COMPOUNDS FOR USE IN METHODS OF INHIBITING WEE1 A KINASE” (Acrivon Therapeutics, Inc., priority 2023, published 2026)
Read-outs that look alike come from different tables or passages of the source.

Legend:
[1] = target: T1, Myt1 kinase (CDK1 Thr14 phosphorylation in DAOY medulloblastoma cells) (Homo sapiens, UniProt Q99640); test: AlphaLISA assay, Myt1 kinase target engagement (phospho-CDK1 Thr14) in DAOY cells; assay type: cell-based
T1 construct: pCDK1 Thr14 AlphaLISA read-out
T1 sequence (Q99640 1-499): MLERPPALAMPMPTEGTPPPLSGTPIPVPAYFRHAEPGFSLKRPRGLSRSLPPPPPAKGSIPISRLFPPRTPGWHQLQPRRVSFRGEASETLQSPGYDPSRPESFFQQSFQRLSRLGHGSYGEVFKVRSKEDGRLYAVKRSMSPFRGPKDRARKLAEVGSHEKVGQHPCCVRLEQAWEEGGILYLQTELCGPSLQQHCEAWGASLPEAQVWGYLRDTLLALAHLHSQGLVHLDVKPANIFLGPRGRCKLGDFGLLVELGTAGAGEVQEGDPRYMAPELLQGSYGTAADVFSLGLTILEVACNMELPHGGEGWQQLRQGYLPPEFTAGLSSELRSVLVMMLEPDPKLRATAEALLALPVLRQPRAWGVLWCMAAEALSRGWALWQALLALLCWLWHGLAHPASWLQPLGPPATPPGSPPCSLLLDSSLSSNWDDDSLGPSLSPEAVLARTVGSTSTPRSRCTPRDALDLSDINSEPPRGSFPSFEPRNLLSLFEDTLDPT
Method: Each of an ACHN renal cell carcinoma cell line (ATCC) and a DAOY medulloblastoma cell line, and an A427 lung cancer line were cultured in Minimum Essential Medium Eagle supplemented with 10% fetal calf serum (Sigma), 1% Penicillin-Streptomycin and 10 mM HEPES buffer (HyClone). Cell cultures were kept in a humidified incubator at 37 °C and 5% CO2. Cells were routinely tested for Mycoplasma contamination.
For target engagement assessment of Myt1 kinase inhibition, quantification of Cdk1 phosphorylated on threonine 14 was detected using the AlphaLISA® SureFire® Ultra™ Human Phospho-CDK1 (Thr14) assay (Perkin Elmer). DAOY or ACHN cells were seeded into tissue culture treated 96-well plates (VWR) to a density of 10,000 or 20,000 cells per well respectively. 24 h post seeding cells were treated for 4 h with compounds at concentrations ranging from 7 to 5000 nM. Cells were washed with PBS and lysed in 50 μl AlphaLISA lysis buffer before freezing at −80 C. Ten ul of the lysate was transferred to 384 well plates and incubated with AlphaLISA donor and acceptor beads according to the manufacturer's instructions. Dose response curves and EC50 values were calculated and visualized using GraphPad Prism version 9. Target engagement for Myt1 kinase can also be measured using the same AlphaLISA assay in OVCAR3 cells, an ovarian cancer cell line. NIH:OVCAR-3 (OVCAR3) cells are cultured in RPMI-1640 medium supplemented with 0.01 mg/ml insulin, 20% FBS, 1% Penicillin-Streptomycin and 10 mM HEPES buffer. 14,000 cells per well are seeded into 96 well tissue culture plates in full medium. Twenty-four hours post seeding, cells are treated with compound for 4 hours at concentrations ranging from 0.017 nM to 1000 nM.

[2] = target: T2, recombinant human Wee1A kinase (Homo sapiens, UniProt P30291); test: Wee1A kinase binding assay (LanthaScreen Eu time-resolved FRET)
T2 construct: full length Wee1 kinase was expressed by baculovirus in insect cells; purchased Invitrogen PV3817; host or cells: insect cells (baculovirus)
In short: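 Full-length, baculovirus-expressed GST-tagged Wee1A (5 nM) was mixed with 2 nM Eu-anti-GST antibody, 30 nM kinase tracer 178 and compound (1% DMSO). Buffer was 50 mM HEPES pH 7.5, 10 mM MgCl2, 1 mM EGTA, 0.01% Brij-35, incubated 60 min at room temperature. TR-FRET 665/615 nm emission ratios from duplicates were curve-fitted.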

[3] = target: T3, Wee1A kinase (CDK1 Tyr15 phosphorylation in ACHN renal cell carcinoma cells) (Homo sapiens, UniProt P30291); test: High-content imaging of pCdk1 Y15, Wee1A kinase target engagement in ACHN cells; assay type: cell-based
T3 construct: pCDK1 Tyr15 immunofluorescence read-out
In short: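 ACHN cells exposed to compound for 4 h over 7–5,000 nM or 0.3–200 nM, then fixed and immunostained for pCDK1 Y15 with DAPI nuclear counterstain. The percentage of pCdk1 Y15 nucleus-positive cells relative to DMSO control was imaged per well; EC50 from dose-response curves.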

ACHN cells = test: Cell Titer Glo viability assay, ACHN cells; assay type: cell-based; conditions: Homo sapiens, 144 h, absolute EC50
In short: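 Cells grown in MEM with 10% FCS were seeded at 500 (A427), 400 (ACHN) or 250 (DAOY) per well and treated the next day with compound at 17 to 10 000 nM. Viability relative to untreated control was read at 144 h by CellTiter-Glo 2.0.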

[4] = target: T4, Myt1 kinase (recombinant PMYT-1) (Homo sapiens, UniProt Q99640); test: Myt1 kinase binding assay (LanthaScreen Eu Kinase Binding Assay)
T4 construct: full length PMYT-1 was expressed by baculovirus in insect cells; purchased Invitrogen A30984; host or cells: insect cells (baculovirus)
T4 sequence (Q99640 1-499): T1 sequence (Q99640 1-499)
In short: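 The binding affinity of compounds for Myt1 kinase was measured with a LanthaScreen Europium (Eu) Kinase Binding Assay, a time-resolved FRET format in which test compounds compete against a labeled kinase tracer, and the results were expressed as IC50 values describing compound binding to Myt1.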

[5] = 4 h treatment, read-out: CDK1 Thr14 Phosphorylation EC50
[6] = 30 nM tracer 178, 5 nM Wee1A kinase, 2 nM Eu-labeled antibody, 60 minutes at room temperature, read-out: Wee1A kinase Binding IC50
[7] = 4 h treatment, nuclear positivity for pCdk1 Y15 vs DMSO control, read-out: CDK1 Tyr15 Phosphorylation EC50
[8] = 3 nM tracer 178, 2.5 nM PMYT-1, 1 nM Eu-labeled antibody, read-out: Myt1 kinase Binding IC50

T3 sequence (P30291 whole entry): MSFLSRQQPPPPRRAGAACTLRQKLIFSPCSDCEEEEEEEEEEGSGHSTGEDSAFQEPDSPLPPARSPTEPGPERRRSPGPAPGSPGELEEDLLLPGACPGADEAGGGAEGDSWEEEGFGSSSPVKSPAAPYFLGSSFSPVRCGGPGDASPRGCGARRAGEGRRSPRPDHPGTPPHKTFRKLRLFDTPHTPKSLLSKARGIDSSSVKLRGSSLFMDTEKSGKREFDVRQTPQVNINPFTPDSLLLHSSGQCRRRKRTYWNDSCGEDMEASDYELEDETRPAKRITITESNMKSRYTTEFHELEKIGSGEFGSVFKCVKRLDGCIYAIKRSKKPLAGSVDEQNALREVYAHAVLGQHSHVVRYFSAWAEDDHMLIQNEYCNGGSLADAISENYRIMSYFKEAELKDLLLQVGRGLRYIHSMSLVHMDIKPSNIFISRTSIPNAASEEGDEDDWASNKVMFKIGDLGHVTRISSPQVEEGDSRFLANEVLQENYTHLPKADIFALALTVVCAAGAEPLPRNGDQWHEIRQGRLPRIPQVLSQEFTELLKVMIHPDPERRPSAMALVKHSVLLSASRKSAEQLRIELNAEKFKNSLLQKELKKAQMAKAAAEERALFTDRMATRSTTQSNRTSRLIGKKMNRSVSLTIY
T2 sequence (P30291 whole entry): as above

Row | SMILES | EC50 [1, 5] [nM] | IC50 [2, 6] [nM] | EC50 [3, 7] [nM] | EC50 (ACHN cells) [nM] | IC50 [4, 8] [nM] | EC50 ([1]; read-out: CDK1 Thr14 Phosphorylation EC50, 4 h treatment) [nM] | IC50 [2] [nM] | EC50 ([3]; read-out: CDK1 Tyr15 Phosphorylation EC50, 4 h treatment, nuclear positivity for pCdk1 Y15 vs DMSO control) [nM] | IC50 ([4]; Myt1 kinase Binding IC50, 3 nM tracer 178, 2.5 nM PMYT-1, 1 nM Eu-labeled antibody) [nM]
1 | C=CCn1c(=O)c2cnc(Nc3ccc4c(cnn4C)c3)nc2n1-c1cccc(O[C@H]2CCNC2)n1 [Compound 100, 1-{6-[(S)-3-pyrrolidinyloxy]-2-pyridyl}-2-allyl-6-(1-methyl-1H-indazol-5-ylamino)-1,2-dihydro-3H-1,2,5,7-tetraazainden-3-one] | > 1000 | < 10 | 100 to 500 | 100 to 500 | < 20 |  |  |  | 
2 | C=CCn1c(=O)c2cnc(Nc3ccc(Cl)cc3)nc2n1-c1cccc(OC2CCNCC2)n1 [Compound 141, 2-allyl-6-((4-chlorophenyl)amino)-1-(6-(piperidin-4-yloxy)pyridin-2-yl)-1,2-dihydro-3H-pyrazolo[3,4-d]pyrimidin-3-one] | 200 to 500 | < 10 | < 100 | 100 to 500 | < 20 |  |  |  | 
3 | C=CCn1c(=O)c2cnc(Nc3ccc(Cl)cc3)nc2n1-c1cccc(O[C@H]2CCNC2)n1 [Compound 145, 1-{6-[(S)-3-pyrrolidinyloxy]-2-pyridyl}-2-allyl-6-(p-chlorophenylamino)-1,2-dihydro-3H-1,2,5,7-tetraazainden-3-one] | 200 to 500 | < 10 | 100 to 500 | 100 to 500 | 20 to 100 |  |  |  | 
4 | C=CCn1c(=O)c2cnc(Nc3cnn(C)c3)nc2n1-c1cccc(O[C@H]2C[C@H]3CC[C@@H](C2)N3C)n1 [Compound 190, 6-[(1-methyl-1H-pyrazol-4-yl)amino]-1-(6-{[(trans)-8-methyl-8-azabicyclo[3.2.1]octan-3-yl]oxy}pyridin-2-yl)-2-(prop-2-en-1-yl)-1H,2H,3H-pyrazolo[3,4-d]pyrimidin-3-one] |  |  |  | 100 to 500 |  | 500 to 1000 | < 10 | 100 to 500 | < 20
5 | C=CCn1c(=O)c2cnc(Nc3ccc(C#N)c(C)c3)nc2n1-c1cccc(OC2CCN(C)CC2)n1 [Compound 204, 2-methyl-4-[(1-{6-[(1-methylpiperidin-4-yl)oxy]pyridin-2-yl}-3-oxo-2-(prop-2-en-1-yl)-1H,2H,3H-pyrazolo[3,4-d]pyrimidin-6-yl)amino]benzonitrile] | > 1000 | < 10 | < 100 | ≤ 100 | 20 to 100 |  |  |  | 
6 | C=CCn1c(=O)c2cnc(Nc3ccc4nsnc4c3)nc2n1-c1cccc(OC2CCN(C)CC2)n1 [Compound 208, 2-allyl-6-(2,1,3-benzothiadiazol-5-ylamino)-1-[6-(1-methyl-4-piperidyloxy)-2-pyridyl]-1,2-dihydro-3H-1,2,5,7-tetraazainden-3-one] | 200 to 500 | < 10 | < 100 | ≤ 100 | < 20 |  |  |  | 
7 | C=CCn1c(=O)c2cnc(Nc3cccnc3)nc2n1-c1cccc(OC2CCN(C)CC2)n1 [Compound 229, 2-allyl-1-[6-(1-methyl-4-piperidyloxy)-2-pyridyl]-6-(3-pyridylamino)-1,2-dihydro-3H-1,2,5,7-tetraazainden-3-one] | > 1000 | < 10 | 100 to 500 | ≤ 100 | 20 to 100 |  |  |  | 
8 | C=CCn1c(=O)c2cnc(Nc3ccc4[nH]ncc4c3)nc2n1-c1cccc(OC2CCN(C)CC2)n1 [Compound 238, 6-((1H-indazol-5-yl)amino)-2-allyl-1-(6-((1-methylpiperidin-4-yl)oxy)pyridin-2-yl)-1,2-dihydro-3H-pyrazolo[3,4-d]pyrimidin-3-one] | 200 to 500 | < 10 | < 100 | ≤ 100 | 20 to 100 |  |  |  | 

Results, then the molecule that gave them:

Row | EC50 [1, 5] [nM] | IC50 [2, 6] [nM] | EC50 [3, 7] [nM] | EC50 (ACHN cells) [nM] | IC50 [4, 8] [nM] | EC50 ([1]; read-out: CDK1 Thr14 Phosphorylation EC50, 4 h treatment) [nM] | IC50 [2] [nM] | EC50 ([3]; read-out: CDK1 Tyr15 Phosphorylation EC50, 4 h treatment, nuclear positivity for pCdk1 Y15 vs DMSO control) [nM] | IC50 ([4]; Myt1 kinase Binding IC50, 3 nM tracer 178, 2.5 nM PMYT-1, 1 nM Eu-labeled antibody) [nM] | SMILES
9 | 200 to 500 | < 10 | < 100 | ≤ 100 | < 20 |  |  |  |  | C=CCn1c(=O)c2cnc(Nc3ccc4c(cnn4C)c3)nc2n1-c1cccc(O[C@H]2CCCNC2)n1 [Compound 104, 1-{6-[(S)-3-piperidyloxy]-2-pyridyl}-2-allyl-6-(1-methyl-1H-indazol-5-ylamino)-1,2-dihydro-3H-1,2,5,7-tetraazainden-3-one]
10 | 500 to 1000 | < 10 | < 100 | ≤ 100 | 20 to 100 |  |  |  |  | C=CCn1c(=O)c2cnc(Nc3ccc4c(cnn4C)c3)nc2n1-c1cccc(O[C@H]2CCN(C)C2)n1 [Compound 105, 1-{6-[(S)-1-methyl-3-pyrrolidinyloxy]-2-pyridyl}-2-allyl-6-(1-methyl-1H-indazol-5-ylamino)-1,2-dihydro-3H-1,2,5,7-tetraazainden-3-one]
11 | > 1000 | < 10 | < 100 | ≤ 100 | 100 to 500 |  |  |  |  | C=CCn1c(=O)c2cnc(Nc3ccc(Cl)cc3)nc2n1-c1cccc(NC2CCN(C)CC2)n1 [Compound 138, 2-allyl-6-((4-chlorophenyl)amino)-1-(6-((1-methylpiperidin-4-yl)amino)pyridin-2-yl)-1,2-dihydro-3H-pyrazolo[3,4-d]pyrimidin-3-one]
12 | > 1000 | < 10 | < 100 | ≤ 100 | 100 to 500 |  |  |  |  | C=CCn1c(=O)c2cnc(Nc3ccc4c(c3)OCO4)nc2n1-c1cccc(NC2CCN(C)CC2)n1 [Compound 196, 2-allyl-6-(2H-1,3-benzodioxol-5-ylamino)-1-[6-(1-methyl-4-piperidylamino)-2-pyridyl]-1,2-dihydro-3H-1,2,5,7-tetraazainden-3-one]
13 | > 1000 | < 10 | < 100 | ≤ 100 | 100 to 500 |  |  |  |  | C=CCn1c(=O)c2cnc(Nc3cnn(C(C)C)c3)nc2n1-c1cccc(OC2CCN(C)CC2)n1 [Compound 198, 2-allyl-6-(1-isopropyl-4-pyrazolylamino)-1-[6-(1-methyl-4-piperidyloxy)-2-pyridyl]-1,2-dihydro-3H-1,2,5,7-tetraazainden-3-one]
14 | > 1000 | < 10 | < 100 | ≤ 100 | 100 to 500 |  |  |  |  | C=CCn1c(=O)c2cnc(Nc3cnn(CC(C)C)c3)nc2n1-c1cccc(OC2CCN(C)CC2)n1 [Compound 200, 2-allyl-6-(1-isobutyl-4-pyrazolylamino)-1-[6-(1-methyl-4-piperidyloxy)-2-pyridyl]-1,2-dihydro-3H-1,2,5,7-tetraazainden-3-one]
